Patent publication US8673914B2, “Use of phosphodiesterase inhibitors for treating multidrug resistance” (St. John's University, priority 2011, dated 2014)
Like-named read-outs stand apart in the source and are kept apart here.

What was measured:
parental cells = assay: [^3H]-mitoxantrone accumulation; format: cell-based
Description: (§1) After washing 3 times with ice-cold PBS, the cells were trypsinized and lysed in 10 mM lysis buffer (pH 7.4, containing 1% Triton X-100 and 0.2% SDS). Each sample was placed in scintillation fluid and radioactivity was measured in a Packard TRI-CARB 1900CA liquid scintillation analyzer from Packard Instrument Company, Inc.

HEK/MRP7 cells [1] = assay: [^3H]-paclitaxel efflux (Example 4); format: cell-based; conditions: 5 μM PDE5 inhibitor
Description: (§2) The effect of PDE5 inhibitors on the intracellular accumulation of paclitaxel in HEK293-pcDNA3.1 and HEK/MRP7 cells was measured using [^3H]-paclitaxel. […] For efflux studies, the cells were treated the same as in the drug accumulation study, and then washed three times with ice-cold PBS, and suspended in fresh medium with or without PDE5 inhibitors. Aliquots were evenly collected at various time points (0, 30, 60, and 120 min). Samples from both accumulation and efflux experiments were washed with ice-cold PBS three times and placed in scintillation fluid, and the radioactivity was measured in a Packard TRI-CARB® 1900CA liquid scintillation analyzer from Packard Instrument Company, Inc. (Downers Grove, Ill.).

ABCB1 = molecular target: T1, ABCB1 (Homo sapiens, UniProt P08183); assay: Vi-sensitive ATPase assay (Example 2); format: biochemical; conditions: read-out: concentration required for 50% stimulation of ATPase activity
T1 construct: made in house; host or cells: High Five insect cells (membrane vesicles / crude membranes)
T1 sequence (P08183 whole entry): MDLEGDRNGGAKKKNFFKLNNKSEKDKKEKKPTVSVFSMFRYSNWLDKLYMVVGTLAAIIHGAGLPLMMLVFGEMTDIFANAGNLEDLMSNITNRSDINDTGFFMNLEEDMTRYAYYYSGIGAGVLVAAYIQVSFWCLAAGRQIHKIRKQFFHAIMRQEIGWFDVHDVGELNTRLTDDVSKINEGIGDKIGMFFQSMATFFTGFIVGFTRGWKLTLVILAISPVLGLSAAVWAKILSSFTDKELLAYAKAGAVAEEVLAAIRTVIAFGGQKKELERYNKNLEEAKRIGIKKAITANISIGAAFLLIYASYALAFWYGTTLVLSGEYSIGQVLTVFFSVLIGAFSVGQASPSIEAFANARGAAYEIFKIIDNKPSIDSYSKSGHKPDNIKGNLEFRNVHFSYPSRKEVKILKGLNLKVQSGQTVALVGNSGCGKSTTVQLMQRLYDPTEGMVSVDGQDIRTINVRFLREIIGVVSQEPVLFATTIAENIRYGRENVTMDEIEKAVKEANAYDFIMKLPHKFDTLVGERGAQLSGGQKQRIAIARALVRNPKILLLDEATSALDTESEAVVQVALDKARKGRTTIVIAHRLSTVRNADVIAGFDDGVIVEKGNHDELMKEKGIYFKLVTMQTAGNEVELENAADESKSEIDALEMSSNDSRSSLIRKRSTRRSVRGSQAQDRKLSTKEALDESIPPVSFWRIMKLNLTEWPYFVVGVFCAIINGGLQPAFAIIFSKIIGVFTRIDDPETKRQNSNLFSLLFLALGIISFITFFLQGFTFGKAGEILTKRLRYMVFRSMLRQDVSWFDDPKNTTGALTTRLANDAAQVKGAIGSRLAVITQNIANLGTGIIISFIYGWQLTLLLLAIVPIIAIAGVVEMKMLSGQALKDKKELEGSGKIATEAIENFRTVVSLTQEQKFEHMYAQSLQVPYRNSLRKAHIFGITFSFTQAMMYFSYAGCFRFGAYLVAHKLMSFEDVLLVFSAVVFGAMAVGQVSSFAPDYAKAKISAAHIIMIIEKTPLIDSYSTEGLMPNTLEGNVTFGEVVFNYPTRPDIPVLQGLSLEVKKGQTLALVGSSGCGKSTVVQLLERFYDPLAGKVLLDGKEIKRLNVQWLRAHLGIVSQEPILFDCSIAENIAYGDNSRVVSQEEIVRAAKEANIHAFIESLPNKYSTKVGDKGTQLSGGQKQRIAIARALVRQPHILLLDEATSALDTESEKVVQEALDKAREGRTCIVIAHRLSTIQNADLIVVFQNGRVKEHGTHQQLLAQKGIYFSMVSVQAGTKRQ
Description: (§3) The vanadate (Vi)-sensitive ATPase activity of ABCB1 or ABCG2 in the membrane vesicles of HIGH FIVE™ insect cells was measured as described in Ambudkar et al., supra. The membrane vesicles (100 μg of protein/mL) were incubated in ATPase assay buffer (50 mM MES, pH 6.8, 50 mM KCl, 5 mM sodium azide, 2 mM EGTA, 2 mM dithiothreitol, 1 mM ouabain, and 10 mM MgCl2) with or without 0.3 mM vanadate at 37° C. for 5 min, and then incubated with different concentrations of drugs at 37° C. for 3 min. The ATPase reaction was […] by the addition of 5 mM Mg-ATP. After incubating at 37° C. for 20 min, the reactions were stopped by adding 0.1 mL of 5% SDS solution. The liberated inorganic phosphate was measured as described in Shukla et al. (2006) Biochemistry 45:8940-51.

ABCG2 = ABCG2 (Homo sapiens, UniProt Q9UNQ0); assay: Vi-sensitive ATPase assay (Example 2); format: biochemical; conditions: read-out: concentration required for 50% stimulation of ATPase activity
Chain of ABCG2 (Q9UNQ0 whole entry): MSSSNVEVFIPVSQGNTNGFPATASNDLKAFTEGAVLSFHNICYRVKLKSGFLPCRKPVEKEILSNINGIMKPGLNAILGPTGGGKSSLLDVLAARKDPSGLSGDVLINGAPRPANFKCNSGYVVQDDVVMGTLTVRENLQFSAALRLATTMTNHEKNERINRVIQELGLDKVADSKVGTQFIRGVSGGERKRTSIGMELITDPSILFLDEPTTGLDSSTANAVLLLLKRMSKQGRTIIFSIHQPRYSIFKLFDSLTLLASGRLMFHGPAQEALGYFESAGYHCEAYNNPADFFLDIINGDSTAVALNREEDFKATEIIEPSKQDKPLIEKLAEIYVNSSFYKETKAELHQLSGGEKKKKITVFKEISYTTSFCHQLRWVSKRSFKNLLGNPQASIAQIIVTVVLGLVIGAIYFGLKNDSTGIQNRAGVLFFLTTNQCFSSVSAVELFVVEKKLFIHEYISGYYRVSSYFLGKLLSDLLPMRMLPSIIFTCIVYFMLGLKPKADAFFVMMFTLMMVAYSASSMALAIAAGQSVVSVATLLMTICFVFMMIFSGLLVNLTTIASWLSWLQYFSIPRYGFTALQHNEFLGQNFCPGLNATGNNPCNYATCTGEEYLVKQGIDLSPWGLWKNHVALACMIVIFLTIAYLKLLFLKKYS
Description: as §3

[2] = test system: cells expressing wild-type or mutant ABCG2; assay: BODIPY-prazosin flow cytometric assay; format: cell-based; conditions: 50 μM; weaker than FTC at […]
Description: Flow cytometric assays were carried out as follows. […] Cells were then washed once in cold complete medium and then incubated for another 1 h at 37° C. in substrate-free media with or without the same described concentrations of the inhibitors to generate the efflux histograms. Subsequently, cells were washed twice with cold DPBS (Dulbecco's PBS) and placed on ice in a dark environment until ready for analysis. […] For all samples, at least 10,000 events were collected. Cell debris was eliminated by gating on forward versus side scatter, and dead cells were excluded on the basis of propidium iodide staining.

KB-C2 xenografts = assay: Mouse tumor xenografts; format: in vivo, mice; conditions: sildenafil 75 mg/kg p.o. + paclitaxel 18 mg/kg i.p. vs paclitaxel alone
Description: Six-to-eight-week old male athymic NCR nude mice from Taconic (Hudson, N.Y.) were used for all xenografts. The mice were provided with sterilized food and water. The animal protocol was reviewed and approved by the Institutional Animal Care and Use Committee at St. John's University. […] When the tumors reached 0.5 cm, the mice were randomized into four groups, six mice per group: […] […] Mice were euthanized when the tumor weight exceeded 1 gram in the control group, and the tumors were excised and weighed.

[3] = test system: MRP7 localization in HEK/MRP7 cells; assay: Immunofluorescence of MRP7; format: cell-based; conditions: 5 μM; 72 h
Description: HEK/MRP7 cells (1×10^4) were seeded in 24 well plates and cultured overnight. […] Cells were washed with PBS and fixed with 4% paraformaldehyde for 15 min at room temperature and then rinsed with PBS three times. Nonspecific reaction was blocked with 1% BSA for 1 h at room temperature. A polyclonal antibody D19 against MRP7 (1:200) was added and incubated overnight. […] DAPI was used for nuclear staining. Immunofluorescent images were taken with an inverted microscope (model IX70; Olympus, Center Valley, Pa.) with IX-FLA fluorescence and CCD camera.

KB-3-1 cells = assay: [^3H]-paclitaxel accumulation (Example 2); format: cell-based, human; conditions: parental KB-3-1
Description: as §1

[4] = test system: any of the cell lines used; assay: MTT assay, sildenafil alone; format: cell-based; conditions: concentrations of up to 50 μM
Description: Cells in 96-well plates were preincubated with or without the reversal agents for 1 h and then different concentrations of chemotherapeutic drugs were added into designated wells. After 68 h of incubation, MTT solution (4 mg/mL) was added to each well, and the plate was further incubated for 4 h, allowing viable cells to change the yellow-colored MTT into dark-blue formazan crystals. Subsequently the medium was discarded, and […] of DMSO was added into each well to dissolve the formazan crystals. The absorbance was determined at 570 nm by an OPSYS MR Microplate Reader from DYNEX Technologies, Inc.

HEK/MRP7 cells [5] = assay: [^3H]-paclitaxel accumulation (Example 4); format: cell-based; conditions: 5 μM, 2 h
Description: as §2

[6] = test system: KB-C2 and KB-V1 cells (ABCB1); assay: [^3H]-paclitaxel accumulation (Example 2); format: cell-based, human; conditions: 10 μM
Description: (§4) Cells in 24-well plates were preincubated with or without the reversal agents for 1 h at 37° C., then incubated with 0.1 μM [^3H]-paclitaxel or 0.2 μM [^3H]-mitoxantrone for 2 h in the presence or absence of the reversal agents at 37° C. After washing 3 times with ice-cold PBS, the cells were trypsinized and lysed in 10 mM lysis buffer (pH 7.4, containing 1% Triton X-100 and 0.2% SDS). Each sample was placed in scintillation fluid and radioactivity was measured in a Packard TRI-CARB 1900CA liquid scintillation analyzer from Packard Instrument Company, Inc.

[7] = test system: ABCG2-overexpressing cell lines; assay: [^3H]-mitoxantrone accumulation; format: cell-based; conditions: 10 or 50 μM
Description: as §4

[8] = MTT cytotoxicity/reversal assay (Example 1); format: cell-based; conditions: human; HEK/MRP1; alone; read-out: IC50 of vincristine
Description: (§5) The KB-C2 and KB-3-1 were kindly provided by Dr. Akiyama (Kagoshima University, Japan). […] Similarly, the HEK/MRP1 (ABCC1) and HEK/ABCB1 cells were generated by transfecting the HEK293 cells with either the MRP1 expression vector or the ABCB1 expression vector. All of the cell lines were grown in Dulbecco's modified Eagle's medium (DMEM) supplemented with 10% bovine serum, 100 units/ml penicillin, and […] streptomycin in a humidified incubator containing 5% CO2 at 37° C.
(§6) The MTT assay was used to assess cytotoxicity. The cultured cells were harvested with trypsin and resuspended in a final concentration of 4×10^3 cells/well for KB-3-1; 7.5×10^3 cells/well for KB-C2; and 8×10^3 for all of the other cell lines used in this study. Cells were seeded evenly in 96-well multiplates. […] After 68 h of incubation, 20 μl of the MTT solution (4 mg/ml) was added to each well, and the plate was further incubated for 4 h at 37° C., allowing viable cells to convert the yellow-colored MTT into dark-blue formazan crystals. Subsequently, the medium was discarded, and 100 μl of DMSO was added into each well to dissolve the formazan crystals, generating purple color. The absorbance was determined at 570 nm by an OPSYS Microplate Reader from DYNEX Technologies, Inc. (Chantilly, Va.). […] The degree of the reversal of multidrug resistance (MDR) was calculated by dividing the IC50 of an anticancer drug, e.g., an antineoplastic or chemotherapeutic drug (agent, compound), in a cell type in the absence of a reversal agent by the IC50 of the anticancer drug in the same cell type in the presence of the reversal agent. The IC50 values were calculated from survival curves using the Bliss method.

HEK/MRP1 (ABCC1) = assay: MTT cytotoxicity/reversal assay (Example 1); format: cell-based; conditions: alone
Description: as §5, §6

[9] = MTT cytotoxicity/reversal assay (Example 1); conditions: human
Description: as §5, §6

HEK/ABCB1 (ABCB1) = assay: MTT cytotoxicity/reversal assay (Example 1); conditions: HEK/ABCB1; alone
Description: as §5, §6

HEK293/pcDNA3.1 = assay: MTT cytotoxicity/reversal assay (Example 1); format: cell-based; conditions: alone
Description: The KB-C2 and KB-3-1 were kindly provided by Dr. Akiyama (Kagoshima University, Japan). HEK293-pcDNA3.1 and wild-type HEK/ABCG2 transfected cells were established by selection with G418 after transfecting HEK293 with either (1) empty pcDNA3.1 vector or (2) pcDNA3.1 vector containing full length of ABCG2 coding arginine (R) at amino acid position 482, and were then cultured in a medium with 2 mg/ml of G418 (ABCG2-482-R2 cells). Similarly, the HEK/MRP1 (ABCC1) and HEK/ABCB1 cells were generated by transfecting the HEK293 cells with either the MRP1 expression vector or the ABCB1 expression vector. All of the cell lines were grown in Dulbecco's modified Eagle's medium (DMEM) supplemented with 10% bovine serum, 100 units/ml penicillin, and […] streptomycin in a humidified incubator containing 5% CO2 at 37° C.
as §6

Row | SMILES | intracellular levels of [^3H]-mitoxantrone (parental cells) | percentage of intracellular [^3H]-paclitaxel (HEK/MRP7 cells [1]; 30 min) [%] | percentage of intracellular [^3H]-paclitaxel (HEK/MRP7 cells [1]; 60 min) [%] | percentage of intracellular [^3H]-paclitaxel (HEK/MRP7 cells [1]; 120 min) [%] | EC50 (ABCB1) [nM] | EC50 (ABCG2) [nM] | accumulation of BODIPY-prazosin [2] | tumor weight and volume (KB-C2 xenografts) | MRP7 protein localization in plasma membranes [3] | intracellular levels of [^3H]-paclitaxel (KB-3-1 cells) | growth inhibition by sildenafil alone [4] | increase of intracellular accumulation of [^3H]-paclitaxel (HEK/MRP7 cells [5]) [fold] | intracellular level of [^3H]-paclitaxel [6] | intracellular [^3H]-mitoxantrone levels [7] | IC50 at 68 h [8] [nM] | fold reversal, vincristine (HEK/MRP1 (ABCC1)) | IC50 at 68 h [9] [nM] | fold reversal, vincristine (HEK/ABCB1 (ABCB1)) | fold reversal, vincristine (HEK293/pcDNA3.1; HEK293/pcDNA3.1 (Table 6)) | fold reversal, vincristine (HEK293/pcDNA3.1; HEK293/pcDNA3.1)
1 | CCCc1nn(C)c2c(=O)nc(-c3cc(S(=O)(=O)N4CCN(C)CC4)ccc3OCC)[nH]c12 [Sildenafil, sildenafil] | Neither sildenafil nor FTC affected the intracellular levels | 90.62 | 82.14 | 62.35 | 5000 to 10000 | 250 to 500 | enhanced the accumulation of BODIPY-prazosin | significant reduction in tumor weight and volume | no alteration of MRP7 protein localization | Neither sildenafil nor verapamil altered the intracellular levels | did not inhibit the growth of any of the cell lines used | 3.3 | significantly increased the intracellular level | elevated intracellular [^3H]-mitoxantrone levels |  |  |  |  |  | 
2 | CC[C@]1(O)C[C@H]2CN(CCc3c([nH]c4ccccc34)[C@@](C(=O)OC)(c3cc4c(cc3OC)N(C=O)[C@H]3[C@@](O)(C(=O)OC)[C@H](OC(C)=O)[C@]5(CC)C=CCN6CC[C@]43[C@@H]65)C2)C1 [Vincristine, vincristine] |  |  |  |  |  |  |  |  |  |  |  |  |  |  | 10.6 ± 2.2 | (1.00) | 170000 ± 12900 | (1.00) | (1.00) | (1.00)
